Data set [1] is described as follows: Emission spectra and fluorescence quantum yield. It is filed as physicochemical. The protocol: (§1) Absorption spectra were recorded with a Varian Cary 4000 UV-Vis double-beam spectrophotometer (Agilent Technologies, USA). For the determination of the absorption spectra, quartz cells with a 1 cm path length were used. Emission spectra and fluorescence quantum yield were obtained on a Quantaurus-QY Absolute PL quantum yield spectrometer C11347 (Hamamatsu Photonics, Japan) or on a Varian Cary Eclipse fluorescence spectrometer (Agilent Technologies, USA).

Data set [2] can be described thus: Absorption spectroscopy (UV/Vis). The format is physicochemical. The protocol: as §1
[3] abbreviates: in acetonitrile, trifluoroacetate.
The mark [4] stands for this setting: in aq. PBS, pH 7.4, trifluoroacetate.

The structures appear in SMILES notation. Several values for one entry are separate records, joined by “and”; a condition that tells them apart may be missing. Equal entries are not always repeated. Structures can show the parent of a compound that is named as a salt. Marks after values point to notes of the source that are not given here.

In the case of `C=CCOC(=O)CCCOP(=O)(OC)[c+]1c2ccc(N(C)C)cc2oc2cc(N(C)C)ccc21` (stereo not shown) [Compound 12, 9-[[4-(Allyloxy)-4-oxobutoxy](methoxy)phosphoryl]-3,6-bis(dimethylamino)-9H-xanthen-9-ylium chloride], in data set [1] (in acetonitrile), the Emission max. was determined as 653 nm; the “QY (fluorescence quantum yield, Φfl)” value is listed as 0.32; the Stokes shift worked out at 32 nm. In addition, in data set [1] (in aq. PBS, pH 7.4), the Emission max. worked out at 669 nm; the “QY (fluorescence quantum yield, Φfl)” value was determined as 0.17; the Stokes shift is 37 nm. Moreover, in data set [2] (in acetonitrile), the Absorption max. was 621 nm; the “ε at absorption max.” value was 42690 M⁻¹ cm⁻¹ and 42700 M⁻¹ cm⁻¹. Also, in data set [2] (in aq. PBS, pH 7.4), the Absorption max. is recorded as 632 nm and the “ε at absorption max.” value was 29540 M⁻¹ cm⁻¹.
Turning to `COP(=O)(C1=c2cc3c4c(c2Oc2c1cc1c5c2CCCN5CCC1)CCC[N+]=4CCC3)N(C(C)C)C(C)C` (stereo not shown) [Compound 17, 9-[(Diisopropylamino)(methoxy)phosphoryl]-1H,2H,3H5H,6H,7H,11H,12H,13H,15H,16H,17H-pyrido[3,2,1-ij]quinolizino[1′,9′:6,7,8]chromeno[2,3-f]quinolinium trifluoroacetate], the Emission max. in data set [1] (in acetonitrile) is listed as 679 nm; in data set [1] (in aq. PBS, pH 7.4) it was 696 nm. For the same molecule, the “QY (fluorescence quantum yield, Φfl)” value in data set [1] (in acetonitrile) came to 0.25; in data set [1] (in aq. PBS, pH 7.4), 0.11. In addition, the Stokes shift turned out to be 30 nm in data set [1] (in acetonitrile) and 35 nm in data set [1] (in aq. PBS, pH 7.4). Besides, the Absorption max. in data set [2] (in acetonitrile) amounted to 649 nm; in data set [2] (in aq. PBS, pH 7.4) it was 661 nm. Further, the “ε at absorption max.” value in data set [2] (setting [3]) is 52455 M⁻¹ cm⁻¹ and 53000 M⁻¹ cm⁻¹; in data set [2] (setting [4]), 46976 M⁻¹ cm⁻¹ and 47000 M⁻¹ cm⁻¹.
On to `CN(C)c1ccc2c(P(=O)(c3ccccc3)c3ccccc3)c3ccc(N(C)C)cc3[o+]c2c1.O=C([O-])C(F)(F)F` [Compound 8, 3,6-Bis(dimethylamino)-9-(diphenylphosphoryl)-9H-xanthenylium trifluoroacetate], for which, in data set [1] (in acetonitrile), the Emission max. worked out at 600 nm; the “QY (fluorescence quantum yield, Φfl)” value was 0.35; the Stokes shift is on record as 26 nm. For the same molecule, in data set [1] (in aq. PBS, pH 7.4), the Emission max. was 639 nm; the “QY (fluorescence quantum yield, Φfl)” value worked out at 0.26; the Stokes shift is 38 nm. The Absorption max. in data set [2] (in acetonitrile) stood at 574 nm. In data set [2] (in aq. PBS, pH 7.4), this molecule registered an Absorption max. of 601 nm.
Take `CCOP(=O)(C1=c2cc3c4c(c2Oc2c1cc1c5c2CCCN5CCC1)CCC[N+]=4CCC3)N(C)CCC(=O)O` (stereo not shown) [Compound 19, 9-[[(2-Carboxyethyl)(methyl)amino](ethoxy)phosphoryl]-1H,2H,3H,5H,6H,7H,11H,12H,13H,15H,16H,17H-pyrido[3,2,1-ij]quinolizino[1′,9′:6,7,8]chromeno[2,3-f]quinolinium trifluoroacetate]: in data set [1] (in acetonitrile), the Emission max. is reported as 682 nm; the “QY (fluorescence quantum yield, Φfl)” value turned out to be 0.19; the Stokes shift was determined as 34 nm. Also, in data set [1] (in aq. PBS, pH 7.4), the Emission max. is on record as 705 nm; the “QY (fluorescence quantum yield, Φfl)” value was found to be 0.11; the Stokes shift is listed as 46 nm. In data set [2] (in acetonitrile), the Absorption max. was 648 nm and the “ε at absorption max.” value was found to be 29373 M⁻¹ cm⁻¹. In data set [2] (in aq. PBS, pH 7.4), the Absorption max. stood at 659 nm and the “ε at absorption max.” value came out at 37214 M⁻¹ cm⁻¹.
Consider `COP(=O)(c1c2ccc(N(C)C)cc2[o+]c2cc(N(C)C)ccc12)N(C(C)C)C(C)C.O=C([O-])C(F)(F)F` (stereo not shown) [Compound 7, 9-[(Diisopropylamino)(methoxy)phosphoryl]-3,6-bis(dimethylamino)-9H-xanthenylium trifluoroacetate], for which the Emission max. in data set [1] (in acetonitrile) is given as 649 nm; in data set [1] (in aq. PBS, pH 7.4), 664 nm. Besides, the “QY (fluorescence quantum yield, Φfl)” value was 0.39 in data set [1] (in acetonitrile) and 0.11 in data set [1] (in aq. PBS, pH 7.4). The Stokes shift came out at 33 nm in data set [1] (in acetonitrile) and 36 nm in data set [1] (in aq. PBS, pH 7.4). Moreover, the Absorption max. in data set [2] (in acetonitrile) stood at 616 nm; in data set [2] (in aq. PBS, pH 7.4), 628 nm. Moreover, the “ε at absorption max.” value in data set [2] (setting [3]) is 52455 M⁻¹ cm⁻¹ and 52500 M⁻¹ cm⁻¹; in data set [2] (setting [4]), 46051 M⁻¹ cm⁻¹ and 46100 M⁻¹ cm⁻¹.
With `CC1=CC(C)=[N+]2C1=C(P(=O)(OC(C)C)OC(C)C)c1c(C)cc(C)n1[B-]2(F)F` [Compound 29, 10-(Diisopropoxyphosphoryl)-5,5-difluoro-1,3,7,9-tetramethyl-5H-dipyrrolo[1,2-c:2′,1′-f][1,3,2]diazaborinin-4-ium-5-uide], the “fluorescence emission (in words)” value in data set [1] is reported as “no emission (quencher)”. Further, in data set [1] (in acetonitrile), the Emission max. is given as 647 nm; the “QY (fluorescence quantum yield, Φfl)” value is less than 0.002; the Stokes shift is on record as 73^a nm. Besides, in data set [2] (in acetonitrile), the Absorption max. amounted to 574 nm and the “ε at absorption max.” value came out at 33000 M⁻¹ cm⁻¹.
As for `CN(C)c1ccc2c(c1)-c1cccc3c(N(C)C)ccc(c13)C2.[O-][Cl+3]([O-])([O-])O` [Compound 28d], in data set [1] (in methanol), the Emission max. was 673 nm and the “QY (fluorescence quantum yield, Φfl)” value is 0.25. Also, in data set [2] (in methanol), the Absorption max. is 646 nm and the “ε at absorption max.” value is 23000 M⁻¹ cm⁻¹.
For the molecule `CCOP(=O)(CC(=O)[O-])c1c2ccc(N(C)C)cc2[o+]c2cc(N(C)C)ccc12` (stereo not shown) [Compound 14, 2-[[3,6-Bis(dimethylamino)-9H-xanthenylium-9-yl](ethoxy)phosphoryl]acetate], in data set [1] (in acetonitrile), the Emission max. is 656 nm; the “QY (fluorescence quantum yield, Φfl)” value was 0.32; the Stokes shift is reported as 31 nm. In data set [1] (in aq. PBS, pH 7.4), the Emission max. is reported as 667 nm; the “QY (fluorescence quantum yield, Φfl)” value worked out at 0.22; the Stokes shift is given as 36 nm. In data set [2] (in acetonitrile), the Absorption max. was 625 nm and the “ε at absorption max.” value stood at 22599 M⁻¹ cm⁻¹. Moreover, in data set [2] (in aq. PBS, pH 7.4), the Absorption max. came out at 631 nm and the “ε at absorption max.” value is 47622 M⁻¹ cm⁻¹.
Turning to `CN(C)c1ccc2c([PH](=O)[O-])c3ccc(N(C)C)cc3[o+]c2c1` [Compound 13, [3,6-Bis(dimethylamino)-9H-xanthenylium-9-yl]phosphinate], in data set [1] (in aq. PBS, pH 7.4), the Emission max. turned out to be 627 nm; the “QY (fluorescence quantum yield, Φfl)” value came to 0.33; the Stokes shift is 37^b nm. In addition, in data set [2] (in aq. PBS, pH 7.4), the Absorption max. amounted to 590 nm; the “ε at absorption max.” value is 59543 M⁻¹ cm⁻¹ and 59400 M⁻¹ cm⁻¹.
Turning to `COP(=O)([O-])C1=c2cc3c4c(c2Oc2c1cc1c5c2CCCN5CCC1)CCC[N+]=4CCC3` [Compound 18, Methyl (1H,2H,3H,5H,6H,7H,11H,12H,13H,15H,16H,17H-pyrido[3,2,1-ij]quinolizino[1′,9′:6,7,8]chromeno[2,3-f]quinolinium-9-yl)phosphonate], in data set [1] (in acetonitrile), the Emission max. was 623 nm; the “QY (fluorescence quantum yield, Φfl)” value is reported as 0.85; the Stokes shift stood at 27 nm. Moreover, in data set [1] (in aq. PBS, pH 7.4), the Emission max. is 666 nm; the “QY (fluorescence quantum yield, Φfl)” value is given as 0.17; the Stokes shift stood at 36 nm. Also, in data set [2] (in acetonitrile), the Absorption max. came out at 596 nm; the “ε at absorption max.” value is 49565 M⁻¹ cm⁻¹ and 49600 M⁻¹ cm⁻¹. In data set [2] (in aq. PBS, pH 7.4), the Absorption max. is 630 nm; the “ε at absorption max.” value is 52286 M⁻¹ cm⁻¹ and 52300 M⁻¹ cm⁻¹.
Take `COP(=O)(OC)c1c2ccc(N(C)C)cc2[n+](C)c2cc(N(C)C)ccc12` [Compound 22, 9-(Dimethoxyphosphoryl)-3,6-bis(dimethylamino)-10-methylacridinium trifluoroacetate]: in data set [1] (in methanol), the Emission max. came out at 620 nm; the “QY (fluorescence quantum yield, Φfl)” value is 0.95; the Stokes shift is on record as 60^e nm. Further, in data set [2] (in methanol), the Absorption max. came to 560 nm and the “ε at absorption max.” value stood at 43000 M⁻¹ cm⁻¹.
On to `CN(C)c1ccc2c(P(=O)([O-])CCC(=O)O)c3ccc(=[N+](C)C)cc-3oc2c1` [Compound 15, [3,6-Bis(dimethylamino)-9H-xanthenyhum-9-yl](2-carboxyethyl)phosphinate], for which, in data set [1] (in aq. PBS, pH 7.4), the Emission max. is listed as 636 nm; the “QY (fluorescence quantum yield, Φfl)” value is on record as 0.29; the Stokes shift is reported as 38^b nm. Besides, in data set [2] (in aq. PBS, pH 7.4), the Absorption max. is reported as 598 nm; the “ε at absorption max.” value is 52094 M⁻¹ cm⁻¹ and 52100 M⁻¹ cm⁻¹.
As to `CC(C)OP(=O)(OC(C)C)c1c2ccc(N(C)C)cc2[o+]c2cc(N(C)C)ccc12.O=C([O-])C(F)(F)F` [Compound 6, 9-(Diisopropoxyphosphoryl)-3,6-bis(dimethylamino)-9H-xanthenylium trifluoroacetate], the Emission max. was 649 nm in data set [1] (in acetonitrile) and 668 nm in data set [1] (in aq. PBS, pH 7.4). Also, the “QY (fluorescence quantum yield, Φfl)” value in data set [1] (in acetonitrile) is on record as 0.38; in data set [1] (in aq. PBS, pH 7.4), 0.12. Moreover, the Stokes shift in data set [1] (in acetonitrile) stood at 32 nm; in data set [1] (in aq. PBS, pH 7.4), 39 nm. Moreover, the Absorption max. is given as 617 nm in data set [2] (in acetonitrile) and 629 nm in data set [2] (in aq. PBS, pH 7.4). Also, the “ε at absorption max.” value was 57638 M⁻¹ cm⁻¹ and 57600 M⁻¹ cm⁻¹ in data set [2] (setting [3]); 52254 M⁻¹ cm⁻¹ and 52300 M⁻¹ cm⁻¹ in data set [2] (setting [4]).
On to `COP(=O)(OC)c1c2ccc(=[N+](C)C)cc-2oc2cc(N(C)C)ccc12.O=C([O-])C(F)(F)F` [Compound 5, 9-(Dimethoxyphosphoryl)-3,6-bis(dimethylamino)-9H-xanthenylium trifluoroacetate], for which, in data set [1] (in aq. PBS, pH 7.4), the Emission max. is listed as 667 nm and the “QY (fluorescence quantum yield, Φfl)” value is recorded as 0.16. Besides, the “ε at absorption max.” value in data set [2] (in aq. PBS, pH 7.4) was found to be 21400 M⁻¹ cm⁻¹.

These data come from patent US10174202B2, “Dyes with phosphinic acid, phosphinate, phosphonate and phosphonamidate substituents as auxochromic groups and methods for preparing the same” (Max-Planck-Gesellschaft zur Foerderung der Wissenschaften …, priority 2017, dated 2019).
